{"source": "paper PMC12177571", "about": "“Glycosidase-activated prodrugs of a cytotoxic iron chelator for targeted cancer therapy” (RSC Medicinal Chemistry, 2025)", "key": {"A549 cells": {"test_system": "A549 cells", "assay": "MTT cell viability assay, A549 cells", "assay_type": "cell-based", "conditions": "Homo sapiens, 72 h incubation, mean and SD of three independent experiments, read-out: IC50 against A549", "description": "(§1) Next, the cytotoxicity of the prodrugs was assessed in the human lung cancer (A549) and human ovarian cancer (OvCar-3) cell lines: overexpressing β-glucosidase, and, overexpressing both β-glucosidase and β-galactosidase, respectively.[40,41] For this, a standard MTT assay was employed to generate the proliferation profiles (cf. ESI ^† Fig. S1–S5) and allowed us to calculate the IC50 values for each compound. GM5756 fibroblast cells were included as non-cancerous control.\n(§2) Cell culture. Ovcar-3 cells were maintained in RPMI-1640 medium (Invitrogen), A549 cells were maintained in high glucose (4.5 g/L) Dulbecco’s Modified Eagle’s medium (Invitrogen. Alle employed culture media were supplemented with 10% fetal bovine serum (Gibco), 2% penicillin/streptomycin (Sigma Aldrich), 1%GlutaMAX™-I (100x, Gibco), and 1% sodium pyruvate (100 mM, Gibco).\n(§3) Cells were kept under a humidified atmosphere of 10% CO2 and 90% air at 37°C. Cells were split when they reached 90% confluency. All employed cell lines were sourced from the German Collection of Microorganisms and Cell Cultures (Leibnitz Institute, DSMZ).\n(§4) Cell viability studies and MTT assays. Cells were harvested and plated on a 96-well plate in 100 µL growth medium at a density of 1500 cells per well. The cells were left to grow for 24 h at 37°C under a humidified atmosphere with 10% CO2. The next day, 100 µL of growth medium containing appropriate concentrations of the investigated compound were added to each well. As a control, the first row of wells was treated with 100 µL medium containing only the vehicle (1% DMSO); all wells contained a final concentration of 0.5% DMSO for the duration of the treatment. After incubation with the compound for 72 h, 50 µL of MTT solution (2.5 mg/mL 3-(4,5-dimethylthiazol-2-yl)-2,5-diphenyltetrazolium bromide dye in PBS buffer) was added to each well. After an additional incubation for 2 h, the supernatant was aspired off and 200 µL of DMSO was added to each well to solubilize the precipitated formazan dye. The produced formazan dye was quantified by measuring the optical density of the solution at 550 nm with a Tecan Infinite M Nano+ plate reader. A baseline correction was performed by subtracting a reference absorbance at 620 nm for each well. From the mean of the corrected absorbances for each set of equivalent wells, a dose-response curve was produced, which was then normalized to the wells containing untreated cells to allow for plate-to-plate comparison. The resulting dose-response curves were subjected to non-linear regression analysis performed in Microsoft Excel (version 16.64) to determine IC50 via the Hill-Langmuir model. Data is shown as the mean of three replicate experiments and error bars represent the standard deviation at each datum point."}, "OvCar-3 cells": {"test_system": "OvCar-3 cells", "assay": "MTT cell viability assay, OvCar-3 cells", "assay_type": "cell-based", "conditions": "Homo sapiens, 72 h incubation, mean and SD of three independent experiments, read-out: IC50 against OvCar-3", "description": "as §1, §2, §3, §4"}, "GM5756 fibroblast cells": {"test_system": "GM5756 fibroblast cells", "assay": "MTT cell viability assay, GM5756 fibroblast cells (non-cancerous control)", "assay_type": "cell-based", "conditions": "72 h incubation, mean and SD of three independent experiments, read-out: IC50 against GM5756", "description": "as §1, §2, §3, §4"}, "[1]": {"assay": "Fe(III) binding study by UV-vis spectroscopy", "conditions": "30 μM compound, excess FeCl3 (50 μM), methanol", "description": "With the prodrugs in hand, binding studies were carried out using UV-vis spectroscopy; this was done to confirm the Fe(III) binding ability of all new compounds. […] To evaluate whether 2a, 2b, 3a, and 3b were chelating Fe(III), each prodrug was similarly dissolved in a solution containing excess FeCl3.\nFig. 2 UV-vis absorption spectra for prodrugs 2a/b and 3a/b as well as 1 at a concentration of 30 μM with an excess of FeCl3 as Fe(III) source (50 μM) in methanol.\nUV-vis spectra were recorded in methanol containing the indicated ligand or prodrug at a concentration of 30 µM and as appropriate Fe(III) at a concentration of 50 µM. A stock solution of FeCl3 in DMSO was used as source of Fe(III) and ligands were added from a […] stock solution in DMSO. All samples contained a final concentration of <0.2% DMSO.\nFigure S7: UV-vis absorption spectra of 1, Fe(III), and 1 + Fe(III). The graph for 1 + Fe(III) (Numerically) was constructed by numerically adding the respective signals of Fe(III) and 1 to show what graph could be expected if the two species were in the same solution without interacting.\nFigure S8: UV-vis absorption spectra of 2a, Fe(III), and 2a + Fe(III). The graph for 2a + Fe(III) (Numerically) was constructed by numerically adding the respective signals of Fe(III) and 2a to show what graph could be expected if the two species were in the same solution without interacting. […]"}, "β-galactosidase": {"biological_target": "T1, β-galactosidase (Escherichia coli, UniProt P00722)", "T1 construct": "purchased Roche; host or cells: E. coli overproducer", "T1 sequence (P00722 2-1024)": "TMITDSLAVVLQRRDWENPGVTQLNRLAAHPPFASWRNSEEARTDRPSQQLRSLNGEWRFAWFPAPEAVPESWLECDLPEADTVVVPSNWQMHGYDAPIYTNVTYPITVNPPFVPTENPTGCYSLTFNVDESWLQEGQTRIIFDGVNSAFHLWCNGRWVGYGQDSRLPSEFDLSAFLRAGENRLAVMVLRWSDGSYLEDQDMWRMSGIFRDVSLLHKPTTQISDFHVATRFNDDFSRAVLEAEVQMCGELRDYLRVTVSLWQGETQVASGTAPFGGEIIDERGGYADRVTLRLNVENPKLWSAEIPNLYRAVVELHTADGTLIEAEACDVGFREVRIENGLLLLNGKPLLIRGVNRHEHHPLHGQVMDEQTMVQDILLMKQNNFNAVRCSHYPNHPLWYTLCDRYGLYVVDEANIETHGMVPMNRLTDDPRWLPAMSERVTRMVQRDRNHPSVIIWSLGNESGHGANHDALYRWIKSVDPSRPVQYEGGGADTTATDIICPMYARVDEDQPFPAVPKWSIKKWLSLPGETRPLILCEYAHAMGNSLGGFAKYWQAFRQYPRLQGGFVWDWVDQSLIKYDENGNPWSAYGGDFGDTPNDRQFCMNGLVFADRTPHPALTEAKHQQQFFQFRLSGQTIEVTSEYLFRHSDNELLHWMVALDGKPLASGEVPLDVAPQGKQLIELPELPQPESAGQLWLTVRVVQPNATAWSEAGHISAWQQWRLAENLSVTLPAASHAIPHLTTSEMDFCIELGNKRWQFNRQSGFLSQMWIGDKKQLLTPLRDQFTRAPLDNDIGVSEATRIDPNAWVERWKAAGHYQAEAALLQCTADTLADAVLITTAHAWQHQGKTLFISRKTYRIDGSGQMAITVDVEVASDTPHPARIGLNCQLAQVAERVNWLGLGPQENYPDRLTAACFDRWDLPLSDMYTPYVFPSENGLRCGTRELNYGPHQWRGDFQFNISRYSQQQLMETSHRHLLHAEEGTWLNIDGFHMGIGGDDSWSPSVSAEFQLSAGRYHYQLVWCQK", "assay": "AIE fluorescence study of release of 1 with β-galactosidase", "assay_type": "biochemical, e.coli", "conditions": "free chelator 1 as reference, 20 μM, enzyme not specified", "description": "The AIE fluorescence properties of 1 were used as a means of supporting the above conclusion. The emission of all glycosylated prodrugs is suppressed. Thus, solutions of each prodrug were prepared in water, and three enzyme units of β-galactosidase or β-glucosidase, as appropriate, were added to the prodrugs. Each mixture was then analysed by fluorescence spectroscopy after 24 h of incubation. […] This finding is consistent with a lack of enzymatic activation.\nFig. 4 Relative emission intensity at 480 nm (*for 3b at 420 nm) of evaluated compounds at 20 μM before and after incubation with 3 U of the appropriate enzyme. TEXT PRINTED IN THE PICTURE: 1: Relative Emission 480 nm: 100% (Before incubation); Relative Emission 480 nm: 100% (After 24 h incubation) | 2a: Relative Emission 480 nm: 0% (Before incubation); Relative Emission 480 nm: 0% (After 24 h incubation) | 2b: Relative Emission 480 nm: 0% (Before incubation); Relative Emission 480 nm: 1% (After 24 h incubation) | 3a: Relative Emission 480 nm: 1% (Before incubation); Relative Emission 480 nm: 33% (After 24 h incubation) | 3b*: Relative Emission 480 nm: 1% (Before incubation); Relative Emission 480 nm: 11% (After 24 h incubation) […]\nFigure S25: Fluorescence spectra for excitation (blue) and emission (green) of 1 at a concentration of 20 μM in water.\nFigure S26: Fluorescence spectra for excitation (blue) and emission (green) of 2a at a concentration of 20 μM in water before (left) and after (right) incubation with 3 units of b-galactosidase for 24 h. […]\nFigure S28: Fluorescence spectra for excitation (blue) and emission (green) of 3a at a concentration of 20 μM in water before (left) and after (right) incubation with 3 units of β-galactosidase for 24 h. […]"}}, "data": [{"smiles": "Oc1ccccc1-c1nc(-c2ccccc2O)n(-c2ccccc2)n1", "note": "[compound 1, reference compound]", "values": [{"measurement": "IC50", "setting": "A549 cells", "value": "3.1 ± 0.4", "unit": "µM"}, {"measurement": "IC50", "setting": "OvCar-3 cells", "value": "3.9 ± 1.6", "unit": "µM"}, {"measurement": "IC50", "setting": "GM5756 fibroblast cells", "value": "2.7 ± 0.1", "unit": "µM"}, {"measurement": "Absorbance at 510 nm (Fe(III) chelation band)", "setting": "[1]", "value": "characteristic absorption band at 510 nm"}, {"measurement": "Relative emission intensity at 480 nm", "setting": "β-galactosidase; after 24 h incubation", "value": 100, "unit": "%"}, {"measurement": "Relative emission intensity at 480 nm", "setting": "β-galactosidase; before incubation", "value": 100, "unit": "%"}]}]}
